# Results taken from patent publication US11492405B2, “Reducing systemic regulatory t cell levels or activity for treatment of disease and injury of the CNS” (Yeda Research and Development Co. Ltd, priority 2014, dated 2022).
# “Also recorded” adds a separate entry of the source.
# How the values were obtained:
# [1] = test system: 5XFAD AD-Tg mice; test: Aβ plaque quantitation (immunohistochemistry) in 5XFAD AD-Tg mice; assay type: in vivo, mouse
# Experimental: Tissue processing and immunohistochemistry were performed on paraffin embedded sectioned mouse (6 μm thick) and human (10 μm thick) brains. For human ICAM-1 staining, primary mouse anti-ICAM (1:20 Abcam; ab2213) antibody was used. Slides were incubated for 10 min with 3% H2O2, and a secondary biotin-conjugated anti-mouse antibody was used, followed by biotin/avidin amplification with Vectastain ABC kit (Vector Laboratories). Subsequently, 3,3′-diaminobenzidine (DAB substrate) (Zytomed kit) was applied; slides were dehydrated and mounted with xylene-based mounting solution. For tissue stainings, mice were transcardially perfused with PBS prior to tissue excision and fixation. CP tissues were isolated under a dissecting microscope (Stemi DV4; Zeiss) from the lateral, third, and fourth ventricles of the brain. For whole mount CP staining, tissues were fixated with 2.5% paraformaldehyde (PFA) for 1 hour at 4° C., and subsequently transferred to PBS containing 0.05% sodium azide. Prior to staining, the dissected tissues were washed with PBS and blocked (20% horse serum, 0.3% Triton X-100, and PBS) for 1 h at room temperature. Whole mount staining with primary antibodies (in PBS containing 2% horse serum and 0.3% Triton X-100), or secondary antibodies, was performed for 1 h at room temperature. Each step was followed by three washes in PBS. The tissues were applied to slides, mounted with Immu-mount (9990402, from Thermo Scientific), and sealed with cover-slips. For staining of sectioned brains, two different tissue preparation protocols (paraffin embedded or microtomed free-floating sections) were applied, as previously described (Baruch et al, 2013; Kunis et al, 2013). […] Microscopic analysis, was performed using a fluorescence microscope (E800; Nikon) or laser-scanning confocal microscope (Carl Zeiss, Inc.). The fluorescence microscope was equipped with a digital camera (DXM 1200F; Nikon), and with either a 20×NA 0.50 or 40×NA 0.75 objective lens (Plan Fluor; Nikon). […] For quantification of staining intensity, total cell and background staining was measured using ImageJ software (NIH), and intensity of specific staining was calculated, as previously described (Burgess et al, 2010). […]
# From each brain, 6 μm coronal slices were collected, and eight sections per mouse, from four different pre-determined depths throughout the region of interest (dentate gyrus or cerebral cortex) were immunostained. […]
# [2] = test system: 5XFAD AD-Tg mice; test: Soluble Aβ (sAβ) ELISA of cerebral brain parenchyma in AD-Tg mice; assay type: in vivo, mouse
# Experimental: Inhibition of p300 in mice was performed similarly to previously described (Liu et al, 2013). p300i (C646; Tocris Bioscience) was dissolved in DMSO and injected i.p. daily (8.9 mg kg^−1 d^−1, i.p.) for 1 week. Vehicle-treated mice were similarly injected with DMSO.
# Tissue homogenization and sAβ protein extraction was performed as previously described (Schmidt et al, 2005). Briefly, cerebral brain parenchyma was dissected and snap-frozen and kept at −80° C. until homogenization. Proteins were sequentially extracted from samples to obtain separate fractions containing proteins of differing solubility. Samples were homogenized in 10 volumes of ice-cold tissue homogenization buffer, containing 250 mM of sucrose, 20 mM of Tris base, 1 mM of ethylenediaminetetraacetic acid (EDTA), and 1 mM of ethylene glycol tetraacetic acid (pH 7.4), using a ground glass pestle in a Dounce homogenizer. After six strokes, the homogenate was mixed 1:1 with 0.4% diethylamine (DEA) in a 100-mM NaCl solution before an additional six strokes, and then centrifuged at 135,000 g at 4° C. for 45 min. The supernatant (DEA-soluble fraction containing extracellular and cytosolic proteins) was collected and neutralized with 10% of 0.5M of Tris-HCl (pH 6.8). Aβ1-40 and Aβ1-42 were individually measured by enzyme-linked immunosorbent assay (ELISA) from the soluble fraction using commercially available kits (Biolegend; #SIG-38954 and #SIG-38956, respectively) according to the manufacturer instructions.
# [3] = test system: aged mice (18 months); test: p300 inhibition in aged mice, flow cytometry of spleen and CP; assay type: in vivo, mouse; settings: p300i 8.9 mg/kg/d i.p. for 1 week vs DMSO, examined a day after cessation
# Experimental: Mice were transcardially perfused with PBS, and tissues were treated as previously described (Baruch et al, 2013). Brains were dissected and the different brain regions were removed under a dissecting microscope (Stemi DV4; Zeiss) in PBS, and tissues were dissociated using the gentleMACS™ dissociator (Miltenyi Biotec). Choroid plexus tissues were isolated from the lateral, third and fourth ventricles of the brain, incubated at 37° C. for 45 min in PBS (with Ca^2+/Mg^2+) containing 400 U/ml collagenase type IV (Worthington Biochemical Corporation), and then manually homogenized by pipetting. Spleens were mashed with the plunger of a syringe and treated with ACK (ammonium chloride potassium) lysing buffer to remove erythrocytes. In all cases, samples were stained according to the manufacturers' protocols. All samples were filtered through a 70 μm nylon mesh, and blocked with anti-Fc CD16/32 (1:100; BD Biosciences). For intracellular staining of IFN-γ, the cells were incubated with […] (10 ng/ml; Sigma-Aldrich) and ionomycin (250 ng/ml; Sigma-Aldrich) for 6 h, and Brefeldin-A (10 μg/ml; Sigma-Aldrich) was added for the last 4 h. Intracellular labeling of cytokines was done with BD Cytofix/Cytoperm™ Plus fixation/permeabilization kit (cat. no. 555028). […] Cells were analyzed on an LSRII cytometer (BD Biosciences) using FlowJo software. […]
# [4] = molecular target: p300 (Mus musculus, UniProt B2RWS6); settings: Liu et al, 2013; cited from earlier work
# Chain of p300 (B2RWS6 whole entry): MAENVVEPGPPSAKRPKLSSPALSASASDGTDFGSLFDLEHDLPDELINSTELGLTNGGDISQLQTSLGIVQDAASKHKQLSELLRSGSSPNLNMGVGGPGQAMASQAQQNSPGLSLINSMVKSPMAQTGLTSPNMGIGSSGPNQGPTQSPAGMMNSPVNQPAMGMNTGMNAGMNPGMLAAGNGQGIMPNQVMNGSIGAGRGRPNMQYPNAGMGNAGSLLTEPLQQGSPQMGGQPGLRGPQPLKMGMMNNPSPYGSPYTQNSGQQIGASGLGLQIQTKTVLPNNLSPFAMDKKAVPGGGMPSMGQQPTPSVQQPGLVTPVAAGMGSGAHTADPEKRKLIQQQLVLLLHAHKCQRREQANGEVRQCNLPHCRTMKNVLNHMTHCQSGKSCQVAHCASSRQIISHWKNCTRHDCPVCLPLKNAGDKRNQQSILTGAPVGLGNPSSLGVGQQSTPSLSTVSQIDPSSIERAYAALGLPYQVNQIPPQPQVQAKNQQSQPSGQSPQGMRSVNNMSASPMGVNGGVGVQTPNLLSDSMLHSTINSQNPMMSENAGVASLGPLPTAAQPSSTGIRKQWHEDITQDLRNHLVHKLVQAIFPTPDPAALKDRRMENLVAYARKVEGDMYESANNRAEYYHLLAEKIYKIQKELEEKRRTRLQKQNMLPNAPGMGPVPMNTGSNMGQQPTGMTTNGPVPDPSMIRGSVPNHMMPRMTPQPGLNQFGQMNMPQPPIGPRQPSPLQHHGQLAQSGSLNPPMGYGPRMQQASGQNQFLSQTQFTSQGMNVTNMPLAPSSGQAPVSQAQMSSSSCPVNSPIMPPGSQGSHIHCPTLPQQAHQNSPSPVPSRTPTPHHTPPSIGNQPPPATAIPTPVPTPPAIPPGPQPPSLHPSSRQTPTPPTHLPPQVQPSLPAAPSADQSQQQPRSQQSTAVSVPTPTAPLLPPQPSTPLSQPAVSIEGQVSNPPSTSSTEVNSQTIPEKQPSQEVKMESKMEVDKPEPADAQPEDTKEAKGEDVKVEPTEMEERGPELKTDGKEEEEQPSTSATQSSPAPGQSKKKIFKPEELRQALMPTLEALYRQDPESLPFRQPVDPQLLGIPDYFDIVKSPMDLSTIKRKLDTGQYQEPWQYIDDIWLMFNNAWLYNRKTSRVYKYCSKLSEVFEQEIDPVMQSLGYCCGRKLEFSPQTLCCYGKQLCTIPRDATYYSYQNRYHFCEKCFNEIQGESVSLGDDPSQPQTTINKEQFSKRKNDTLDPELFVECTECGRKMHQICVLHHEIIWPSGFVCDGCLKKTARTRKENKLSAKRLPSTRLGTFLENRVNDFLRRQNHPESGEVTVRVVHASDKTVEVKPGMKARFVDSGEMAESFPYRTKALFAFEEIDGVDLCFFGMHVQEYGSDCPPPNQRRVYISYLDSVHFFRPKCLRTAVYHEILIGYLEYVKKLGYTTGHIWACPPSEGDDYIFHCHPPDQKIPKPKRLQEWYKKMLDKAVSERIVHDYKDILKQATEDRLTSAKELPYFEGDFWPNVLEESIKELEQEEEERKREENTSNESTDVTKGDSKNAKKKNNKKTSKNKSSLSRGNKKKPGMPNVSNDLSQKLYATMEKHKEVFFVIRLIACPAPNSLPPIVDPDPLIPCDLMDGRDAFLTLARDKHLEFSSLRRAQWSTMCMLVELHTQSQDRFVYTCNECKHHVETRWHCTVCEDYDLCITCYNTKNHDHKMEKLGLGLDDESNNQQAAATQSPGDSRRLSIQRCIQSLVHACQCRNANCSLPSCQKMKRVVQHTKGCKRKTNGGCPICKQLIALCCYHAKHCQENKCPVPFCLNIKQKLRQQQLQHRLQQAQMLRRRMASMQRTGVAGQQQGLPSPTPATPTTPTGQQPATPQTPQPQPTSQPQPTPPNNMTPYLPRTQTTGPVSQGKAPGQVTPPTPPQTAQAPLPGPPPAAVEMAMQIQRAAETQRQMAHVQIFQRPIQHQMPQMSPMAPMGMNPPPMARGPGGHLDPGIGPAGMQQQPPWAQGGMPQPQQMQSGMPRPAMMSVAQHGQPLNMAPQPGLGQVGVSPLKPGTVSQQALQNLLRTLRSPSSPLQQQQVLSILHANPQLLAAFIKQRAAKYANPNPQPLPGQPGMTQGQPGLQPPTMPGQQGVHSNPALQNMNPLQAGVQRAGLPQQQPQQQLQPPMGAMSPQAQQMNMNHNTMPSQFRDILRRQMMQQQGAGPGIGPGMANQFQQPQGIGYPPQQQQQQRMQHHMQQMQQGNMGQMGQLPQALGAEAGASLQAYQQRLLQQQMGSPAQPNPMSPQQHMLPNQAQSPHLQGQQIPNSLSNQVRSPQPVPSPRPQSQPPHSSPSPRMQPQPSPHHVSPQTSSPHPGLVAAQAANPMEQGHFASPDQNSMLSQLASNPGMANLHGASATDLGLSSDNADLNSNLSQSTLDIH
smiles,measurement,setting,value
"CC1=NN(c2ccc(C(=O)O)cc2)C(=O)/C1=C\c1ccc(-c2cc(C)c(C)cc2[N+](=O)[O-])o1 [p300i, 4-(4-((5-(4,5-dimethyl-2-nitrophenyl)furan-2-yl)methylene)-3-methyl-5-oxo-4,5-dihydro-1H-pyrazol-1-yl)benzoic acid]",cerebral Aβ plaque load,"[1]; 10-month old AD-Tg mice, p300i for 1 week, examined 3 weeks later",significant reduction
same,reduction of cerebral plaque load,"[1]; single course of p300i, examined 2 months later",evident even two months after a single course of treatment
same,reduction of cerebral plaque load,"[1]; two courses of p300i with 1-month interval, compared with single course",stronger
same,cerebral sAβ (Aβ1-40/Aβ1-42) levels,[2]; one course of p300i,effective in reducing cerebral sAβ
same,effect on sAβ1-42,[2]; repeated courses of p300i compared with one course,stronger
same,cerebral sAβ (Aβ1-40/Aβ1-42) levels,[2]; two courses of p300i with interval of 1 month,effective in reducing cerebral sAβ
same,IFN-γ-expressing cells in the CP,[3],elevated levels; also recorded: elevation
same,IFN-γ-expressing cells in the spleen,[3],elevated levels; also recorded: elevation
same,effect on Treg suppressive activities,[4],affect Treg suppressive activities while leaving protective T effector cell responses intact
